From US8563754B2, “Compounds, compositions and methods for preventing skin darkening” (priority 2010, dated 2013)
Read-outs that look alike come from different tables or passages of the source.

Tested on: cultured murine melanocytes (melan-a)
Experiment: Melanin assay in cultured murine melanocytes (melan-a)
Format: cell-based
Details: for activity at 1 µM / activity at 5 µM: Mus musculus; for activity at 1 µM: read-out: % of control melanin remaining after treatment @ 1 μM; for activity at 5 µM: read-out: % of control melanin remaining after treatment @ 5 μM; for ability to block melanin accumulation: cells treated with 1 and 5 uM test compound versus carrier (DMSO) only
Procedure: The Spectrum Collection library consisting of 2000 drug compounds or natural products represents a source for the identification of compounds useful in the present invention. The library may be screened to identify novel pigmentation inhibitors in cultured murine melanocytes (melan-a). Compounds are dissolved in dimethylsulfoxide (DMSO) to a final concentration of 10 mM. Screening is performed with cultured melanocytes in 24-well plates followed by melanin assay (see below). A minimum change of 50% in melanin formation is established as significant for a pigmentation inhibitor. DMSO may be used as a negative control and the widely used depigmenting agent, hydroquinone, may be used as a positive control on every plate. Primary screening is performed at a final concentration of 1 μM and potential candidates from the primary screening are reconfirmed in duplicate at final concentrations of 1 and 5 μM.
Melan-a cells are plated at 5×10^4 cells per well in 1 ml of culture media in 24-well plates the day before adding the library compounds. All compounds are added at the indicated final concentrations. Cells are harvested after 72 hours of incubation, and the melanin assay is performed.
For the primary and secondary screening, cells were harvested and dissolved in 200 μl of 2N NaOH in 20% DMSO at 70° C. A 180-μl aliquot of the resulting solution was measured for absorbance at 490 nm.
A series of structurally related compounds was then tested in this screen, to identify compounds that inhibit skin darkening.

[1] = 1 μM test compound, melan-a cells, 72 hours incubation, control = DMSO carrier, absorbance at 490 nm
[2] = 5 μM test compound, melan-a cells, 72 hours incubation, control = DMSO carrier, absorbance at 490 nm

Row | Molecule | activity at 1 µM [1] [%] | activity at 5 µM [2] [%] | also measured
1 | CC(C)=CCOc1cc2oc(=O)ccc2cc1O [Compound 1, PRENYLETIN] | 79 | 80 | 
2 | C=C(C)[C@H]1COc2cc3oc(=O)ccc3cc2O1 [Compound 2, OBLIQUIN] | 84 | 95 | 
3 | CC(C)C1COc2cc3oc(=O)ccc3cc2O1 (stereo not shown) [Compound 3, DIHYDRO-OBLIQUIN] | 81 | 81 | 
4 | COc1cc2ccc(=O)oc2c(OC)c1OC [Compound 4, FRAXIDIN METHYL ETHER] | 87 | 95 | 
5 | CC1(C)C=Cc2cc3ccc(=O)oc3cc2O1 [Compound 5, XANTHYLETIN] | 99 | 110 | 
6 | CC(C)=CCOc1c2occc2cc2ccc(=O)oc12 [Compound 6, IMPERATORIN] | 91 | 96 | 
7 | COc1cc2c(cc1-c1cc3cc4ccoc4cc3oc1=O)OCO2 [Compound 7, PACHYRRHIZIN] |  |  | activity at 1 µM (Melan-a, 72 h): 75%; activity at 5 µM (Melan-a, 72 h): 71%; ability to block melanin accumulation: robust dose dependent ability to block melanin accumulation
8 | COc1ccc2ccc(=O)oc2c1 [Compound 8, HERNIARIN] | 84 | 81 | 
9 | COc1ccc(-c2c(OC)c3c(OC)c4c(cc3oc2=O)OC(C)(C)C=C4)cc1 [Compound 9, ROBUSTIC ACID METHYL ETHER] | 69 | 16 | ability to block melanin accumulation: robust dose dependent ability to block melanin accumulation
10 | COc1ccc(-c2c(O)c3c(OC)c4c(cc3oc2=O)OC(C)(C)C=C4)cc1 [Compound 10, ROBUSTIC ACID] | 91 | 93 | 
11 | COc1c(O)cc2c(-c3ccccc3)cc(=O)oc2c1OC [Compound 11, KUHLMANNIN] | 81 | 84 | 
12 | COc1cc2ccc(=O)oc2c2ccoc12 [Compound 12, SPHONDIN] | 89 | 101 | 
13 | COc1c2ccoc2c(OC)c2oc(=O)ccc12 [Compound 13, ISOPIMPINELLIN] | 86 | 95 | 
14 | COc1c(OC)c2occc2c2oc(=O)ccc12 [Compound 14, PIMPINELLIN] | 76 | 109 | 
15 | COc1cc2occc2c2oc(=O)ccc12 [Compound 15, ISOBERGAPTENE] | 86 | 108 | 
16 | COc1c(CC=C(C)C)c2c(c3oc(=O)c(-c4ccc(O)cc4)c(O)c13)C=CC(C)(C)O2 [Compound 16, SCANDENIN] | 90 | 64 | ability to block melanin accumulation: robust dose dependent ability to block melanin accumulation
17 | COc1ccc2c(C)cc(=O)oc2c1 [Compound 17, HYMECROMONE METHYL ETHER] | 96 | 93 | 
18 | COc1c2ccoc2cc2oc(=O)ccc12 [Compound 18, BERGAPTENE] | 100 | 93 | 
19 | CCOP(=S)(OCC)Oc1ccc2c(C)c(Cl)c(=O)oc2c1 [Compound 19, COUMOPHOS] | 81 | 48 | ability to block melanin accumulation: robust dose dependent ability to block melanin accumulation
20 | COc1c2occc2cc2ccc(=O)oc12 [Compound 20, METHOXSALEN, reference compound] | 120 | 125 | 

Row | Molecule | activity at 1 µM [1] [%] | activity at 5 µM [2] [%] | also measured
21 | CO[C@@H]1[C@@H](OC(N)=O)[C@@H](O)[C@H](Oc2ccc3c(O)c(NC(=O)c4ccc(O)c(CC=C(C)C)c4)c(=O)oc3c2C)OC1(C)C [Compound 21, NOVOBIOCIN SODIUM, reference compound] | 90 | 94 | 
22 | Cc1cc2cc3c(C)cc(=O)oc3c(C)c2o1 [Compound 22, TRIOXSALEN, reference compound] | 90 | 118 | 
23 | COc1cc(OC)c2ccc(=O)oc2c1 [Compound 23, CITROPTEN] | 86 | 97 | 
24 | Cc1cc(=O)oc2cc(O)c(O)cc12 [Compound 24, 4-METHYLESCULETIN] | 88 | 100 | 
25 | O=c1ccc2cc(O)c(O)cc2o1 [Compound 25, ESCULETIN] | 87 | 88 | 
26 | O=c1ccc2cc(O[C@@H]3O[C@H](CO)[C@@H](O)[C@H](O)[C@H]3O)c(O)cc2o1 [Compound 26, AESCULIN] | 70 | 84 | 
27 | CC1(C)Oc2ccc3ccc(=O)oc3c2CC1O (stereo not shown) [Compound 27, LOMATIN] | 89 | 85 | 
28 | C/C=C(/C)C(=O)O[C@@H]1Cc2c(ccc3ccc(=O)oc23)OC1(C)C [Compound 28, SELINIDIN] | 85 | 82 | 
29 | C/C=C(\C)C(=O)O[C@@H]1c2c(ccc3ccc(=O)oc23)OC(C)(C)[C@@H]1OC(C)=O [Compound 29, PTERYXIN] | 93 | 101 | 
30 | CC(=O)O[C@@H]1c2c(ccc3ccc(=O)oc23)OC(C)(C)[C@@H]1OC(=O)CC(C)C [Compound 30, DIHYDROSAMIDIN] | 106 | 88 | 
31 | CC(C)(O)[C@@H]1Cc2cc3ccc(=O)oc3cc2O1 [Compound 31, MARMESIN] | 89 | 97 | 
32 | CC(=O)OC(C)(C)[C@@H]1Cc2cc3ccc(=O)oc3cc2O1 [Compound 32, MARMESIN ACETATE] | 77 | 92 | 
33 | COc1c(C(C)C)oc2cc3oc(=O)ccc3cc12 [Compound 34, PEUCEDANIN] | 83 | 84 | 
34 | COc1c2c(c(CC=C(C)C)c3oc(=O)c(-c4ccc(O)cc4)c(O)c13)OC(C)(C)C=C2 [Compound 35, LO[…]] | 84 | 81 | 
35 | Cc1cc(=O)oc2c(O)c(O)ccc12 [Compound 37, 4- METHYLDAPHNETIN] | 83 | 88 | 
36 | COc1cc2ccc(=O)oc2cc1O [Compound 38, SCOPOLETIN] | 77 | 83 | 
37 | COc1cc2ccc(=O)oc2c(O)c1O [Compound 39, FRAXETIN] | 84 | 89 | 
38 | DERRUSNIN [Compound 36] |  |  | % of control melanin remaining after treatment @ 1 μM [1]: 81 % of control; % of control melanin remaining after treatment @ 5 μM [2]: 87 % of control
39 | FELAMIDIN [Compound 40] |  |  | % of control melanin remaining after treatment @ 1 μM [1]: 97 % of control; % of control melanin remaining after treatment @ 5 μM [2]: 88 % of control
